Experimental data taken from PubChem BioAssay (NCI).
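Exposure lasted 48 hours, with cells grown in 96-well plates and compounds tested at five concentrations. TGI: concentration producing complete growth inhibition.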

Assays:
Assay in all cases: inhibition of tumour cell growth, NCI panel, 48 h
[1] = test system: 786-0 renal
[2] = test system: A498 renal
[3] = test system: A549 NSCLC
[4] = test system: ACHN renal
[5] = test system: BT-549 breast
[6] = test system: CAKI-1 renal
[7] = test system: COLO 205 colon
[8] = test system: DU-145 prostate
[9] = test system: EKVX NSCLC
[10] = test system: HCC-2998 colon
[11] = test system: HCT-116 colon
[12] = test system: HCT-15 colon
[13] = test system: HOP-62 NSCLC
[14] = test system: HOP-92 NSCLC
[15] = test system: HS 578T breast
[16] = test system: HT29 colon
[17] = test system: IGROV1 ovarian
[18] = test system: K-562 leukemia
[19] = test system: KM12 colon
[20] = test system: LOX IMVI melanoma
[21] = test system: M14 melanoma
[22] = test system: MALME-3M melanoma
[23] = test system: MCF7 breast
[24] = test system: MDA-MB-231 breast
[25] = test system: MDA-MB-435
[26] = test system: MDA-N
[27] = test system: NCI-H226 lung
[28] = test system: NCI-H23 lung
[29] = test system: NCI-H460 lung
[30] = test system: NCI-H522 lung
[31] = test system: NCI/ADR-RES ovarian
[32] = test system: OVCAR-3 ovarian
[33] = test system: OVCAR-4 ovarian
[34] = test system: OVCAR-5 ovarian
[35] = test system: OVCAR-8 ovarian
[36] = test system: PC-3 prostate
[37] = test system: RPMI-8226 leukemia
[38] = test system: RXF 393 renal
[39] = test system: SF-268 CNS
[40] = test system: SF-295 CNS
[41] = test system: SF-539 CNS
[42] = test system: SK-MEL-2 melanoma
[43] = test system: SK-MEL-28 melanoma
[44] = test system: SK-MEL-5 melanoma
[45] = test system: SK-OV-3 ovarian
[46] = test system: SN12C renal
[47] = test system: SNB-19 CNS
[48] = test system: SNB-75 CNS
[49] = test system: SR leukemia
[50] = test system: SW-620 colon
[51] = test system: T-47D breast
[52] = test system: TK-10 renal
[53] = test system: U251 CNS
[54] = test system: UACC-257 melanoma
[55] = test system: UACC-62 melanoma
[56] = test system: UO-31 renal
[57] = test system: CCRF-CEM leukemia
[58] = test system: HL-60(TB) leukemia

Measured: TGI

NS(=O)(=O)c1cc2c(cc1Cl)NC(Cc1ccccc1)NS2(=O)=O (stereo not drawn)
> 100 µM: [1] | [2] | [3] | [4] | [5] | [6] | [7] | [8] | [9] | [10] | [11] | [12] | [13] | [14] | [15] | [16] | [17] | [18] | [19] | [20] | [21] | [22] | [23] | [24] | [25] | [26] | [27] | [28] | [29] | [30] | [31] | [32] | [33] | [34] | [35] | [36] | [37] | [38] | [39] | [40] | [41] | [42] | [43] | [44] | [45] | [46] | [47] | [48] | [49] | [50] | [51] | [52] | [53] | [54] | [55] | [56]

O=P(O)(O)c1ccccc1 (tested in a mixture with another compound)
> 100 µM: [1] | [2] | [3] | [4] | [5] | [6] | [57] | [7] | [8] | [9] | [10] | [11] | [12] | [58] | [13] | [14] | [15] | [16] | [17] | [18] | [19] | [20] | [21] | [22] | [23] | [24] | [25] | [26] | [27] | [28] | [29] | [30] | [31] | [32] | [33] | [34] | [35] | [36] | [37] | [38] | [39] | [40] | [42] | [43] | [44] | [45] | [46] | [47] | [48] | [49] | [50] | [51] | [52] | [53] | [54] | [55] | [56]
